Measured values taken from patent US8268842B2, “Fused ring 4-oxopyrimidine derivative” (MSD K.K., priority 2004, dated 2012).
Like-named read-outs stand apart in the source and are kept apart here.

How the values were obtained:
[1] = target: T1, human histamine H3 receptor (Homo sapiens, UniProt Q9Y5N1); assay: Histamine analog coupling inhibition test; type: binding
T1 construct: expressed in transfected cells; host or cells: HEK293 and CHO-K1
From the text: A cDNA sequence [International Patent Application WO00/3916 Specification No. 4] which encodes human histamine H3 receptor was cloned using the expression vectors pCR2.1, pEF1x (product of Invitrogen), and pCI-neo (product of Promega Inc.). The expression vector obtained was transfected to the host cells, HEK293 and CHO-K1 (American type culture collection), using the cationic lipid method [Proceedings of the National Academy of Sciences of the United States of America, Vol. 84, p. 7413 (1987), and histamine H3 receptor expression cells were thus obtained.
A film preparation made from the cells which represented the histamine H3 receptor, the test compound (the compound of Example 1) and 20,000 cpm of [3H]N-α-methylhistamine (product of NEN) were incubated in an assay buffer solution (50 mM Tris buffer solution, pH 7.4) at 25° C. for 2 hours, and filtered on a glass filter GF/C. After washing by 50 mM Tris buffer solution, pH7.4, the radioactivity on the glass filter was found. Non-specific linkages were measured in the presence of 10 microM thioperamide (product of SIGAM), and the 50% inhibition concentration (IC50 value) of the test compound with respect to specific N-α-methylhistamine linkages was found (Molecular Pharmacology, Vol. 55, p. 1101 (1999)).

histamine H3 receptor = target: T2, histamine H3 receptor (Rattus norvegicus, UniProt Q9QYN8); assay: Antagonism test of drinking behavior induced by R-α-methylhistamine, a histamine H3 receptor selective agonist; type: in vivo; conditions: male SD rat, 10 mg/kg oral 2 hours before R-α-methylhistamine, measured 1 hour after
T2 construct: from tissue; host or cells: living male SD rat (brain, third ventricle agonist administration)
T2 sequence (Q9QYN8 whole entry): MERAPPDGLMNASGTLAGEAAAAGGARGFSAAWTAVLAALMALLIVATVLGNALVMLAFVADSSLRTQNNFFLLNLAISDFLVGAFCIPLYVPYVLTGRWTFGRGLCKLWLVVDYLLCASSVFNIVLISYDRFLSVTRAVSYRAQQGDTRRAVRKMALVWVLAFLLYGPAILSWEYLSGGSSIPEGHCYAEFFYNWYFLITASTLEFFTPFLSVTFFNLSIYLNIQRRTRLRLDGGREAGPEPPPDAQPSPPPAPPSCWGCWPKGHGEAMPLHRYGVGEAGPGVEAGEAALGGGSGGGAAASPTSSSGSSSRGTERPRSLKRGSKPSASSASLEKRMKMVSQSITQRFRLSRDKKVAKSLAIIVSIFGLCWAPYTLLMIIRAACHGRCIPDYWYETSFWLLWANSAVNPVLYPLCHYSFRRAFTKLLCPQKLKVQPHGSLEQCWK
Experimental: Under ketamine/xylazine anaesthesia (74 mg/kg and 11 mg/kg intraperitoneal single-dose administration), a chronic guide cannula (26 gauge, length 11 mm) was inserted in the ventriculus tertius of a male SD rat (7-10 weeks old, 200-300 g) using a brain stereotaxis apparatus, and fixed by dental resin. The position of the tip of the guide cannula was 2.2 mm back from the bregma, and at a depth of 8 mm from the skull surface on the median line. After about 1 week convalescence, R-α-methylhistamine (0.3 μg/1 μL/head, 30% propylene glycol solution) was administered to the ventriculus tertius. The test compound (the compound of Example 1) suspended in 0.5% methylcellulose aqueous solution was administered orally 2 hours before the R-α-methylhistamine administration, and the drinking water amount was measured 1 hour after R-α-methylhistamine administration.

[2] = Brain/cerebrospinal fluid activity test; type: in vivo, rat; conditions: SD type male rats, 2 hours after oral administration (10 mg/kg); for concentration at 2 h: rat
Experimental: The test compound (the compound of Example 1) was administered orally or intravenously to SD type male rats (7-10 weeks old, 200-400 g), and exsanguination was performed from the abdominal aorta under ether anesthesia using a heparin treatment syringe at a predetermined time. The skin at the back of the head was cut open, pierced with a 30G dental needle between the cervical vertebrae, and inserted into the subarachnoid space. 50-100 μL of cerebrospinal fluid was extracted by a 1 mL syringe via a tube connected to the 30G needle, and the brain was extracted. A blood sample was centrifuged (4° C., 6000 rpm, 10 minutes), and three times the amount of ethanol (containing an internal reference) was added to the plasma and stirred. 2 mL of water was added to a brain sample, homogenized, a part was removed, and three times the amount of ethanol (containing an internal reference) was added and stirred. The cerebrospinal fluid was taken, three times the amount of ethanol (containing an internal reference) was added, and stirred. The above sample was left at −20° C. for 20 minutes, centrifuged (4° C., 12,000 g, 10 minutes), the supernatant liquid was analyzed by LC/MS/MS, and the concentration in plasma, brain and cerebrospinal fluid was measured by the relative calibration curve method.

[3] = Kinetic test (plasma concentration after oral or intravenous administration); type: in vivo; conditions: rat, SD type male rats, fasted overnight
Experimental: The test compound (the compound of Example 1) was administered orally or intravenously to SD type male rats (7-10 weeks old, 200-400 g) which had abstained from food overnight, and about 100 μL of blood was collected from a caudal vein using a heparinized capillary tube at a predetermined time. The blood was centrifuged (4° C., 6000 rpm, 10 minutes), and plasma was obtained. Three times the amount of ethanol (containing an internal reference) was added to the plasma, stirred, left for 20 minutes at −20° C., and centrifuged (4° C., 10,000 rpm, 10 minutes). The supernatant liquid was analyzed by LC/MS/MS, and the plasma concentration was measured by the relative calibration curve method.

T1 sequence (Q9Y5N1 whole entry): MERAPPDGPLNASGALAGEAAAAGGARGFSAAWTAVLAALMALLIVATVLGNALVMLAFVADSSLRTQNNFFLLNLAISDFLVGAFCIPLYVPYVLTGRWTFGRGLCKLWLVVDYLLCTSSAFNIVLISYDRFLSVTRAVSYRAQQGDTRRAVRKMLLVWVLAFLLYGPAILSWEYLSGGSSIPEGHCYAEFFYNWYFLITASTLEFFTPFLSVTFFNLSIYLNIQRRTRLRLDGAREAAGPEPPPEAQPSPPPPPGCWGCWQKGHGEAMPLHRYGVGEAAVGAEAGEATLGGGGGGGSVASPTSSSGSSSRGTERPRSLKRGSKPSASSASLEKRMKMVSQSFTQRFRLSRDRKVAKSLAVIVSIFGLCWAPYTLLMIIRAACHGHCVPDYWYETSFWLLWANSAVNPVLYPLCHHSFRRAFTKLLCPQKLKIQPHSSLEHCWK

| melting point | SMILES | other results |
| --- | --- | --- |
| 122 to 125 °C | Cc1nc2ccc(F)cc2c(=O)n1-c1ccc(OC2CCN(C3CCC3)CC2)cc1 [Example 232, 3-{4-[(1-cyclobutylpiperidin-4-yl)oxy]phenyl}-6-fluoro-2-methyl-4(3H)-quinazolinone] | – |
| 171 to 173 °C | COc1ccc2nc(C)n(-c3ccc(OC4CCN(C5CCC5)CC4)cc3)c(=O)c2c1 [Example 228, 3-{4-[(1-cyclobutylpiperidin-4-yl)oxy]phenyl}-6-methoxy-2-methyl-4(3H)-quinazolinone] | – |
| 140 to 143 °C | Cc1nc2ccncc2c(=O)n1-c1ccc(OC2CCN(C3CCCC3)CC2)cc1 [Example 101, 3-{4-[(1-cyclopentyl-4-piperidinyl)oxy]phenyl}-2-methylpyrido[4,3-d]pyrimidin-4(3H)-one] | – |
| 169 to 171 °C | Cc1nc2cnccc2c(=O)n1-c1ccc(OC2CCN(C3CCC3)CC2)cc1 [Example 114, 3-{4-[(1-cyclobutyl-4-piperidinyl)oxy]phenyl}-2-methylpyrido[3,4-d]pyrimidin-4(3H)-one] | – |
| 238 to 250 °C | Cc1nc2ccncc2c(=O)n1-c1ccc(OCCCN2CCC[C@H]2C)cc1 [Example 266, 2-methyl-3-(4-{3-[(2R)-2-methylpyrrolidin-1-yl]propoxy}phenyl)pyrido[4,3-d]pyrimidin-4(3H)-one] | – |
| 145 to 147 °C | COc1cc2c(=O)n(-c3ccc(OCCCN4CCCCC4)cc3)c(C)nc2cn1 [Example 199, 6-methoxy-2-methyl-3-[4-(3-piperidin-1-ylpropoxy)phenyl]pyrido[3,4-d]pyrimidin-4(3H)-one] | – |
| 161 to 163 °C | Cc1nc2cnc(F)cc2c(=O)n1-c1ccc(OC2CCN(C3CCC3)CC2)cc1 [Example 230, 3-{4-[(1-cyclobutyl-piperidin-4-yl)oxy]phenyl}-6-fluoro-2-methylpyrido[3,4-d]pyrimidin-4(3H)-one] | – |
| 146 to 148 °C | CCc1nc2ncccc2c(=O)n1-c1ccc(OC2CCN(C3CCC3)CC2)cc1 [Example 111, 3-{4-[(1-cyclobutyl-4-piperidinyl)oxy]phenyl}-2-ethylpyrido[2,3-d]pyrimidin-4(3H)-one] | – |
| 177 to 179 °C | Cc1nc2c(F)cccc2c(=O)n1-c1ccc(OC2CCN(C3CCC3)CC2)cc1 [Example 242, 3-{4-[(1-cyclobutylpiperidin-4-yl)oxy]phenyl}-8-fluoro-2-methyl-4(3H)-quinazolinone] | – |
| 163 to 166 °C | Cc1nc2cc(F)ccc2c(=O)n1-c1ccc(OC2CCN(C3CCC3)CC2)cc1 [Example 233, 3-{4-[(1-cyclobutylpiperidin-4-yl)oxy]phenyl}-7-fluoro-2-methyl-4(3H)-quinazolinone] | – |
| 186 to 189 °C | CCc1nc2ccncc2c(=O)n1-c1ccc(OC2CCN(C3CCC3)CC2)cc1 [Example 109, 3-{4-[(1-cyclobutyl-4-piperidinyl)oxy]phenyl}-2-ethylpyrido[4,3-d]pyrimidin-4(3H)-one] | – |

The remaining lines, values behind:

| SMILES | melting point | other results |
| --- | --- | --- |
| COc1ccc2nc(C)n(-c3ccc(OCCCN4CCCCC4)cc3)c(=O)c2c1 [Example 36, 6-methoxy-2-methyl-3-{4-[3-(1-piperidinyl)propoxy]phenyl}-4(3H)-quinazolinone] | 136 to 138 °C | – |
| COc1cc2c(=O)n(-c3ccc(OCCCN4CCCC4)cc3)c(C)nc2cn1 [Example 200, 6-methoxy-2-methyl-3-[4-(3-pyrrolidin-1-ylpropoxy)phenyl]pyrido[3,4-d]-pyrimidin-4(3H)-one] | 123 to 126 °C | – |
| CCc1nc2ncccc2c(=O)n1-c1ccc(OCCCN2CCC[C@H](C)C2)cc1.Cl | 245 to 252 °C | – |
| Cc1nc2cccc(F)c2c(=O)n1-c1ccc(OCCCN2CCC[C@H]2C)cc1 [Example 260, 5-fluoro-2-methyl-3-(4-{3-[(2R)-2-methylpyrrolidin-1-yl]propoxy}phenyl)-4(3H)-quinazolinone] | 125 to 127 °C | – |
| COc1cccc2nc(C)n(-c3ccc(OCCCN4CCC[C@H](C)C4)cc3)c(=O)c12 [Example 164, 5-methoxy-2-methyl-3-(4-{3-[(3S)-3-methylpiperidin-1-yl]propoxy}phenyl)-4(3H)-quinazolinone] | 144 to 146 °C | – |
| Cc1nc2cccc(F)c2c(=O)n1-c1ccc(OCCCN2CCCCC2)cc1 [Example 26, 5-fluoro-2-methyl-3-{4-[3-(1-piperidinyl)propoxy]phenyl}-4(3H)-quinazolinone] | 141 to 145 °C | – |
| COc1ccc2nc(C)n(-c3ccc(OCCCN4CCC[C@H]4C)cc3)c(=O)c2c1 [Example 172, 6-methoxy-2-methyl-3-(4-{3-[(2R)-2-methylpyrrolidin-1-yl]propoxy}phenyl)-4(3H)-quinazolinone] | 106 to 108 °C | – |
| COc1ccc2c(=O)n(-c3ccc(OCCCN4CCC[C@H](C)C4)cc3)c(C)nc2c1 [Example 170, 7-methoxy-2-methyl-3-(4-{3-[(3S)-3-methyl-piperidin-1-yl]propoxy}phenyl)-4(3H)-quinazolinone] | 94 to 96 °C | – |
| Cc1nc2ncccc2c(=O)n1-c1ccc(OCCCN2CCC[C@H](C)C2)cc1.Cl | 255 to 262 °C | – |
| CCc1nc2ccccc2c(=O)n1-c1ccc(OCCCN2CCCCC2)cc1 [Example 1, 2-ethyl-3-{4-[3-(1-piperidinyl)propoxy]phenyl}-4(3H)-quinazolinone] | – | IC50 ([1]; [3H]N-α-methylhistamine, preparation from histamine H3 receptor expression cells, 50 mM Tris pH 7.4, 25° C., 2 hours, read-out: 50% inhibition concentration (IC50 value) with respect to specific N-α-methylhistamine linkages): 15 nM; binding of N-α-methylhistamine to the histamine H3 receptor ([1]; summary in words of the binding test): strongly prevented binding; increase in drinking water amount due to R-α-methylhistamine administered to the ventriculus tertius (histamine H3 receptor): significantly suppressed; intracerebral concentration [2]: 3.16 nmol/g; concentration at 2 h ([2]; cerebrospinal fluid, read-out: cerebrospinal fluid concentration): 142 nM; concentration at 2 h ([2]; plasma, read-out: plasma concentration): 2320 nM; bioavailability [3]: 60%; half-life ([3]; read-out: half-life in blood (converted)): 6.3 h |
| COc1ccc2nc(C)n(-c3ccc(OCCCN4CCC[C@@H]4C)cc3)c(=O)c2c1 [Example 144, 6-methoxy-2-methyl-3-(4-{3-[(2S)-2-methylpyrrolidin-1-yl]propoxy}phenyl)-4(3H)-quinazolinone] | 102 to 106 °C | – |
